Measured values reported in ChEMBL document CHEMBL3045905, “Synthesis and evaluation of curcumin analogues as cytotoxic agents” (Med Chem Res, 2010).
Calls of active or inactive are those of the source. The rule behind the calls is not given here.

Columns and labels:
[1] = Cytotoxicity against Mus musculus (mouse) EAC assessed as cell viability by trypan blue exclusion assay; format: functional, Ehrlich
[2] = Antitumor activity against Mus musculus (mouse) EAC xenografted in Mus musculus (mouse) assessed as normalization of hematocrit at 50 to 250 mg/kg/day, ip measured on day 14 (reference value: 35.5%); format: functional, Ehrlich; conditions: route intraperitoneal
Mus musculus [3] = assay: Toxicity in Mus musculus Swiss Albino (mouse) xenografted with Mus musculus (mouse) EAC assessed as increase in body weight at 50 to 250 mg/kg/day, ip measured on day 14; format: organism-based; design: route intraperitoneal; conditions: in vivo
Ehrlich [4] = assay: Antitumor activity against Mus musculus (mouse) EAC xenografted in Mus musculus (mouse) assessed as normalization of WBC level at 50 to 250 mg/kg/day, ip measured on day 14 relative to untreated control; format: functional, organism-based
[5] = Antitumor activity against Mus musculus (mouse) EAC xenografted in Mus musculus (mouse) assessed as increase in mean survival time at 50 to 250 mg/kg/day, ip after 9 days (reference value: 9.1 days); format: functional, Ehrlich; conditions: route intraperitoneal
[6] = Antitumor activity against Mus musculus (mouse) EAC xenografted in Mus musculus (mouse) assessed as decrease in tumor number at 50 to 250 mg/kg/day, ip measured on day 14 by Giemsa staining (reference value: 220 million/ml); format: functional, Ehrlich; conditions: route intraperitoneal
[7] = Antitumor activity against Mus musculus (mouse) EAC xenografted in Mus musculus (mouse) assessed as normalization of hemoglobin level at 50 to 250 mg/kg/day, ip measured on day 14 (reference value: 8.7 g/dl); format: functional, Ehrlich; conditions: route intraperitoneal
[8] = Antitumor activity against Mus musculus (mouse) EAC xenografted in Mus musculus (mouse) assessed as increase in mean survival time at 20 mg/kg/day, ip after 9 days (reference value: 9.1 days); format: functional, Ehrlich; conditions: route intraperitoneal
[9] = Antitumor activity against Mus musculus (mouse) EAC xenografted in Mus musculus (mouse) assessed as normalization of hemoglobin level at 20 mg/kg/day, ip measured on day 14 (reference value: 8.7 g/dl); format: functional, Ehrlich; conditions: route intraperitoneal
Mus musculus [10] = assay: Toxicity in Mus musculus Swiss Albino (mouse) xenografted with Mus musculus (mouse) EAC assessed as increase in body weight at 20 mg/kg/day, ip measured on day 14; format: organism-based; design: route intraperitoneal; conditions: in vivo
[11] = Antitumor activity against Mus musculus (mouse) EAC xenografted in Mus musculus (mouse) assessed as normalization of hematocrit at 20 mg/kg/day, ip measured on day 14 (reference value: 35.5%); format: functional, Ehrlich; conditions: route intraperitoneal
Ehrlich [12] = assay: Antitumor activity against Mus musculus (mouse) EAC xenografted in Mus musculus (mouse) assessed as normalization of WBC level at 20 mg/kg/day, ip measured on day 14 relative to untreated control; format: functional, organism-based
[13] = Antitumor activity against Mus musculus (mouse) EAC xenografted in Mus musculus (mouse) assessed as decrease in tumor number at 20 mg/kg/day, ip measured on day 14 by Giemsa staining (reference value: 220 million/ml); format: functional, Ehrlich; conditions: route intraperitoneal

## COc1cc(/C=C/c2cc(/C=C/c3ccc(O)c(OC)c3)n(NN)n2)ccc1O
[1]
  ED25: 22.2 mM

## COc1ccc(NN=C(C(=O)/C=C/c2ccc(O)c(OC)c2)C(=O)/C=C/c2ccc(O)c(OC)c2)cc1
[1]
  ED25: 3.4 mM

## COc1cc(/C=C/C(=O)C(=NNc2ccc(C)cc2)C(=O)/C=C/c2ccc(O)c(OC)c2)ccc1O
[1]
  ED10: 2.4 mM

## COc1cc(/C=C/C(=O)C(=NNc2ccc(Cl)cc2)C(=O)/C=C/c2ccc(O)c(OC)c2)ccc1O
[1]
  ED25: 3.2 mM

## COc1cc(/C=C/C(=O)C(=NNc2ccc([N+](=O)[O-])cc2)C(=O)/C=C/c2ccc(O)c(OC)c2)ccc1O
[1]
  ED10: 2.5 mM
  ED25: 2.8 mM

## COc1cc(/C=C/C(=O)/C(=N\Nc2ccc([N+](=O)[O-])cc2)C(=O)C(Br)C(Br)c2ccc(O)c(OC)c2)ccc1O (stereo not drawn)
[1]
  ED25: 3.2 mM

## COc1cc(C2CC(C(=NNc3ccc([N+](=O)[O-])cc3)C3=NC(=S)NC(c4ccc(O)c(OC)c4)C3)=NC(=S)N2)ccc1O (stereo not drawn)
[1]
  ED25: 4.8 mM

## COc1cc(/C=C/C(=O)/C(=N\Nc2ccc([N+](=O)[O-])cc2)C2=NC(=S)NC(c3ccc(O)c(OC)c3)C2)ccc1O (stereo not drawn)
[1]
  ED10: 2.9 mM

## COc1cc(C2C=C(C(=NNc3ccc([N+](=O)[O-])cc3)C3=CC(c4ccc(O)c(OC)c4)ON3)NO2)ccc1O (stereo not drawn)
[1]
  ED25: 5.3 mM

## COc1cc(C2CC(C(=NNc3ccc([N+](=O)[O-])cc3)C3=NNC(c4ccc(O)c(OC)c4)C3)=NN2)ccc1O (stereo not drawn)
[1]
  ED25: 38.9 mM

## COc1cc(/C=C/c2cc(/C=C/c3ccc(O)c(OC)c3)n(N=O)n2)ccc1O
[1]
  ED25: 6.7 mM

## COc1cc(/C=C/c2cc(/C=C/c3cc(/N=N/c4ccc(Cl)cc4)c(O)c(OC)c3)n(CO)n2)cc(/N=N/c2ccc(Cl)cc2)c1O
[1]
  ED25: 3.6 mM

## COc1cc(/C=C/c2cc(/C=C/c3ccc(O)c(OC)c3)[nH]n2)ccc1O [CURCUMIN PYRAZOLE]
[2]
  Activity: 41%
[1]
  ED25: 66.7 mM
Mus musculus [3]
  Activity: Toxic
Ehrlich [4]
  Activity: Active
[5]
  MST: 14.6 days
[6]
  Activity: 169.6 ×10⁶ /ml
[7]
  Activity: 9.4 g/dL

## COc1cc(/C=C/C(=O)CC(=O)/C=C/c2ccc(O)c(OC)c2)ccc1O [CURCUMIN]
[1]
  ED10: 3.4 mM
  ED25: 4.8 mM

## O=c1[nH]cc(F)c(=O)[nH]1 [FLUOROURACIL]
[8]
  MST: 16.7 days
[9]
  Activity: 10 g/dL
Mus musculus [10]
  Activity: Toxic
[11]
  Activity: 42.3%
Ehrlich [12]
  Activity: Active
[13]
  Activity: 123 ×10⁶ /ml
